Results reported in PubChem BioAssay (NCI).
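Growth conditions: 96-well plates. Treatment: test compound, 48 hours, 5 concentrations. Analysis: linear interpolation between bracketing concentrations; unreached endpoints set to highest concentration. GI50 marks 50% less growth. TGI marks complete inhibition of growth.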

Assays:
Assay in all cases: NCI-60 cell line screen, 48 h
KM12 colon = system: KM12 colon
NCI-H23 lung = system: NCI-H23 lung
K-562 leukemia = system: K-562 leukemia
HCT-116 colon = system: HCT-116 colon
OVCAR-3 ovarian = system: OVCAR-3 ovarian
OVCAR-8 ovarian = system: OVCAR-8 ovarian
SW-620 colon = system: SW-620 colon
UACC-62 melanoma = system: UACC-62 melanoma
NCI-H226 lung = system: NCI-H226 lung
EKVX NSCLC = system: EKVX NSCLC
SNB-19 CNS = system: SNB-19 CNS
UO-31 renal = system: UO-31 renal
SK-MEL-5 melanoma = system: SK-MEL-5 melanoma
RPMI-8226 leukemia = system: RPMI-8226 leukemia
SK-MEL-28 melanoma = system: SK-MEL-28 melanoma
NCI-H522 lung = system: NCI-H522 lung
U251 CNS = system: U251 CNS
786-0 renal = system: 786-0 renal
MALME-3M melanoma = system: MALME-3M melanoma
NCI-H460 lung = system: NCI-H460 lung
A549 NSCLC = system: A549 NSCLC
ACHN renal = system: ACHN renal
SF-295 CNS = system: SF-295 CNS
SN12C renal = system: SN12C renal
M14 melanoma = system: M14 melanoma
DU-145 prostate = system: DU-145 prostate
CAKI-1 renal = system: CAKI-1 renal
HCC-2998 colon = system: HCC-2998 colon
SF-539 CNS = system: SF-539 CNS
SK-OV-3 ovarian = system: SK-OV-3 ovarian
COLO 205 colon = system: COLO 205 colon
SR leukemia = system: SR leukemia
HOP-62 NSCLC = system: HOP-62 NSCLC
MDA-MB-231 breast = system: MDA-MB-231 breast
CCRF-CEM leukemia = system: CCRF-CEM leukemia
HL-60(TB) leukemia = system: HL-60(TB) leukemia
HCT-15 colon = system: HCT-15 colon
SF-268 CNS = system: SF-268 CNS
SK-MEL-2 melanoma = system: SK-MEL-2 melanoma
OVCAR-4 ovarian = system: OVCAR-4 ovarian
OVCAR-5 ovarian = system: OVCAR-5 ovarian
UACC-257 melanoma = system: UACC-257 melanoma
RXF 393 renal = system: RXF 393 renal
LOX IMVI melanoma = system: LOX IMVI melanoma
MOLT-4 leukemia = system: MOLT-4 leukemia
HT29 colon = system: HT29 colon
IGROV1 ovarian = system: IGROV1 ovarian
BT-549 breast = system: BT-549 breast
SNB-75 CNS = system: SNB-75 CNS
HS 578T breast = system: HS 578T breast
TK-10 renal = system: TK-10 renal
T-47D breast = system: T-47D breast
A498 renal = system: A498 renal
MDA-MB-435 = system: MDA-MB-435
PC-3 prostate = system: PC-3 prostate
MCF7 breast = system: MCF7 breast
NCI/ADR-RES ovarian = system: NCI/ADR-RES ovarian

`NCc1ccc(-n2c(-c3nonc3N)nc3cnccc32)cc1` showed a GI50 (KM12 colon) of 8.79 µM, a TGI (KM12 colon) of over 25 µM and a GI50 (NCI-H23 lung) of over 25 µM. The TGI (NCI-H23 lung) was over 25 µM, the GI50 (K-562 leukemia) was over 25 µM and the TGI (K-562 leukemia) was over 25 µM. It also gave a GI50 (HCT-116 colon) of 2.69 µM, a TGI (HCT-116 colon) of over 25 µM and a GI50 (OVCAR-3 ovarian) of 7.13 µM. For the same compound, the TGI (OVCAR-3 ovarian) was over 25 µM, the GI50 (OVCAR-8 ovarian) was 6.76 µM and the TGI (OVCAR-8 ovarian) was over 25 µM. The GI50 (SW-620 colon) was 7.1 µM, the TGI (SW-620 colon) was over 25 µM and the GI50 (UACC-62 melanoma) was over 25 µM. For the same compound, the TGI (UACC-62 melanoma) was over 25 µM, the GI50 (NCI-H226 lung) was 0.912 µM and the TGI (NCI-H226 lung) was over 25 µM. The GI50 (EKVX NSCLC) was over 25 µM, the TGI (EKVX NSCLC) was over 25 µM and the GI50 (SNB-19 CNS) was over 25 µM. The TGI (SNB-19 CNS) was over 25 µM, the GI50 (UO-31 renal) was 0.442 µM and the TGI (UO-31 renal) was over 25 µM. It also gave a GI50 (SK-MEL-5 melanoma) of 9.25 µM, a TGI (SK-MEL-5 melanoma) of over 25 µM and a GI50 (RPMI-8226 leukemia) of over 23.2 µM. For the same compound, the TGI (RPMI-8226 leukemia) was over 25 µM, the GI50 (SK-MEL-28 melanoma) was 11.4 µM and the TGI (SK-MEL-28 melanoma) was over 25 µM. For the same compound, the GI50 (NCI-H522 lung) was 7.66 µM, the TGI (NCI-H522 lung) was over 25 µM and the GI50 (U251 CNS) was 8.94 µM. For the same compound, the TGI (U251 CNS) was over 25 µM, the GI50 (786-0 renal) was 7.51 µM and the TGI (786-0 renal) was over 25 µM. It also gave a GI50 (MALME-3M melanoma) of over 25 µM, a TGI (MALME-3M melanoma) of over 25 µM and a GI50 (NCI-H460 lung) of 13.7 µM. For the same compound, the TGI (NCI-H460 lung) was over 25 µM, the GI50 (A549 NSCLC) was 6.86 µM and the TGI (A549 NSCLC) was over 25 µM. It also gave a GI50 (ACHN renal) of 5.68 µM, a TGI (ACHN renal) of over 25 µM and a GI50 (SF-295 CNS) of 16 µM. The TGI (SF-295 CNS) was over 25 µM, the GI50 (SN12C renal) was 7.61 µM and the TGI (SN12C renal) was over 25 µM. It also gave a GI50 (M14 melanoma) of over 25 µM, a TGI (M14 melanoma) of over 25 µM and a GI50 (DU-145 prostate) of 11.4 µM. For the same compound, the TGI (DU-145 prostate) was over 25 µM, the GI50 (CAKI-1 renal) was 2.27 µM and the TGI (CAKI-1 renal) was over 25 µM. The GI50 (HCC-2998 colon) was 23.8 µM, the TGI (HCC-2998 colon) was over 25 µM and the GI50 (SF-539 CNS) was 2.57 µM. The TGI (SF-539 CNS) was over 23.6 µM, the GI50 (SK-OV-3 ovarian) was over 25 µM and the TGI (SK-OV-3 ovarian) was over 25 µM. For the same compound, the GI50 (COLO 205 colon) was 5.53 µM, the TGI (COLO 205 colon) was over 25 µM and the GI50 (SR leukemia) was 2.67 µM. For the same compound, the TGI (SR leukemia) was over 25 µM, the GI50 (HOP-62 NSCLC) was over 14.4 µM and the TGI (HOP-62 NSCLC) was over 25 µM. It also gave a GI50 (MDA-MB-231 breast) of over 25 µM, a TGI (MDA-MB-231 breast) of over 25 µM and a GI50 (CCRF-CEM leukemia) of 6.26 µM. For the same compound, the TGI (CCRF-CEM leukemia) was over 25 µM, the GI50 (HL-60(TB) leukemia) was over 11.8 µM and the TGI (HL-60(TB) leukemia) was over 25 µM. The GI50 (HCT-15 colon) was 6.85 µM, the TGI (HCT-15 colon) was over 25 µM and the GI50 (SF-268 CNS) was 5.26 µM. The TGI (SF-268 CNS) was over 25 µM, the GI50 (SK-MEL-2 melanoma) was over 25 µM and the TGI (SK-MEL-2 melanoma) was over 25 µM. It also gave a GI50 (OVCAR-4 ovarian) of over 25 µM, a TGI (OVCAR-4 ovarian) of over 25 µM and a GI50 (OVCAR-5 ovarian) of 11.7 µM. It also gave a TGI (OVCAR-5 ovarian) of over 25 µM, a GI50 (UACC-257 melanoma) of over 25 µM and a TGI (UACC-257 melanoma) of over 25 µM. The GI50 (RXF 393 renal) was 1.76 µM, the TGI (RXF 393 renal) was 11.3 µM and the GI50 (LOX IMVI melanoma) was 17.1 µM. It also gave a TGI (LOX IMVI melanoma) of over 25 µM, a GI50 (MOLT-4 leukemia) of 12.3 µM and a TGI (MOLT-4 leukemia) of over 25 µM. It also gave a GI50 (HT29 colon) of 7.58 µM, a TGI (HT29 colon) of over 25 µM and a GI50 (IGROV1 ovarian) of over 25 µM. The TGI (IGROV1 ovarian) was over 25 µM, the GI50 (BT-549 breast) was 0.964 µM and the TGI (BT-549 breast) was over 25 µM. It also gave a GI50 (SNB-75 CNS) of 0.291 µM, a TGI (SNB-75 CNS) of over 25 µM and a GI50 (HS 578T breast) of 0.674 µM. It also gave a TGI (HS 578T breast) of over 25 µM, a GI50 (TK-10 renal) of 0.385 µM and a TGI (TK-10 renal) of over 25 µM. It also gave a GI50 (T-47D breast) of 8.48 µM, a TGI (T-47D breast) of over 25 µM and a GI50 (A498 renal) of 1.38 µM. For the same compound, the TGI (A498 renal) was over 22.1 µM, the GI50 (MDA-MB-435) was 20.1 µM and the TGI (MDA-MB-435) was over 25 µM. For the same compound, the GI50 (PC-3 prostate) was over 19.3 µM, the TGI (PC-3 prostate) was over 25 µM and the GI50 (MCF7 breast) was 5.19 µM. It also gave a TGI (MCF7 breast) of over 25 µM, a GI50 (NCI/ADR-RES ovarian) of over 25 µM and a TGI (NCI/ADR-RES ovarian) of over 25 µM.
